# Laboratory results reported in US10519177B2, “Heterocyclic compounds and uses thereof” (Plexxikon Inc., priority 2013, dated 2019).
# Test system: bromodomain
# Test: at least one of the bromodomain cell assays of Example 57
# Type: cell-based
# Details: at least one of the bromodomain cell assays described in Example 57; read-out: IC50 in at least one of the bromodomain cell assays
row,Compound,IC50 [µM]
1,"Cc1noc(C)c1-c1cnc2c(-c3ccc(C(=O)O)cc3)cn([C@@H](c3ccccn3)C3CCCCC3)c2c1 [P-0816, 4-[1-[(R)-cyclohexyl(2-pyridyl)methyl]-6-(3,5-dimethy7lisoxazol-4-yl)pyrrolo[3,2-b]pyridin-3-yl]benzoic acid]",< 10
2,"Cc1noc(C)c1-c1cnc2c(c1)c(C(c1ccccn1)c1ccccn1)cn2-c1ccc(C(=O)O)cn1 [P-0737, 6-[3-[bis(2-pyridyl)methyl]-5-(3,5-dimethylisoxazol-4-yl)pyrrolo[2,3-b]pyridin-1-yl]pyridine-3-carboxylic acid]",< 10
3,"Cc1noc(C)c1-c1cnc2[nH]cc(C(c3ccccc3)c3ccccc3)c2c1 [P-0738, 4-(3-benzhydryl-1H-pyrrolo[2,3-b]pyridin-5-yl)-3,5-dimethyl-isoxazole]",< 10
4,"Cc1noc(C)c1-c1cnc2c(c1)c(C(c1ccccn1)c1ccccn1)cn2-c1ccc(C(=O)O)cc1 [P-0735, 4-[3-[bis(2-pyridyl)methyl]-5-(3,5-dimethylisoxazol-4-yl)pyrrolo[2,3-b]pyridin-1-yl]benzoic acid]",< 10
5,"Cc1noc(C)c1-c1cnc2c(c1)c(C(c1ccccc1)c1ccccc1)cn2-c1ccc(C(=O)O)cn1 [P-0742, 6-[3-benzhydryl-5-(3,5-dimethylisoxazol-4-yl)pyrrolo[2,3-b]pyridin-1-yl]pyridine-3-carboxylic acid]",< 10
6,"Cc1noc(C)c1-c1ccc2c(-c3cnn(C)c3)cn(S(=O)(=O)C3CCCC3)c2c1 [P-0231, 4-[1-cyclopentyl-sulfonyl-3-(1-methyl-pyrazol-4-yl)indol-6-yl]-3,5-dimethyl-isoxazole]",< 10
7,"Cc1noc(C)c1-c1cnc2c(-c3ccc(C4(C(=O)O)CC4)cc3)cn(CC3(C)CCOCC3)c2c1 [P-0777, 1-[4-[6-(3,5-dimethylisoxazol-4-yl)-1-[(4-methyltetrahydropyran-4-yl)methyl]pyrrolo[3,2-b]pyridin-3-yl]phenyl]cyclopropanecarboxylic acid]",< 10
8,"Cc1ccc(-c2cn([C@@H](c3ccccc3)c3ccccn3)c3cc(-c4c(C)noc4C)cnc23)cc1 [P-0714, 3,5-dimethyl-4-[1-[(S)-phenyl(2-pyridyl)methyl]-3-(p-tolyl)pyrrolo[3,2-b]pyridin-6-yl]isoxazole]",< 10
9,"Cc1noc(C)c1-c1ccc2c(-c3ccc(C(=O)O)cc3)cn([C@@H](c3ccccc3)c3ccccn3)c2c1 [P-0751, 4-[6-(3,5-dimethylisoxazol-4-yl)-1-[(S)-phenyl(2-pyridyl)methyl]indol-3-yl]benzoic acid]",< 10
10,"Cc1noc(C)c1-c1cnc2c(-c3ccc(C(C)(C)C(=O)O)cc3)cn(CC3CCOCC3)c2c1 [P-0773, 2-[4-[6-(3,5-dimethylisoxazol-4-yl)-1-(tetrahydropyran-4-ylmethyl)pyrrolo[3,2-b]pyridin-3-yl]phenyl]-2-methyl-propanoic acid]",< 10
11,"Cc1cc(-c2ccc3c(-c4ccc(C(=O)O)cc4)cn(CC4CCCCC4)c3c2)cn(C)c1=O [P-0760, 4-[1-(cyclohexylmethyl)-6-(1,5-dimethyl-6-oxo-3-pyridyl)indol-3-yl]benzoic acid]",< 10
12,"Cc1cc(-c2ccc3c(-c4ccc(C(=O)O)cc4)cn([C@@H](C)c4ccccn4)c3c2)cn(C)c1=O [P-0762, 4-[6-(1,5-dimethyl-6-oxo-3-pyridyl)-1-[(1S)-1-(2-pyridyl)ethyl]indol-3-yl]benzoic acid]",< 10
13,"Cc1noc(C)c1-c1ccc2c(-c3ccc(P(=O)(O)O)cc3)cn(CC3CCC(F)(F)CC3)c2c1 [P-0747, [4-[1-[(4,4-difluorocyclohexyl)methyl]-6-(3,5-dimethylisoxazol-4-yl)indol-3-yl]phenyl]phosphonic acid]",< 10
14,"COC(=O)c1ccc(-c2cn(C(c3ccccc3)c3ccccc3)c3cc(-c4c(C)noc4C)cnc23)cc1 [P-0617, methyl 4-[1-benzhydryl-6-(3,5-dimethylisoxazol-4-yl)pyrrolo[3,2-b]pyridin-3-yl]benzoate]",< 10
15,"[2H]C([2H])([2H])c1noc(C([2H])([2H])[2H])c1-c1cnc2c(-c3cnn(CC(F)(F)F)c3)cn(CC3CCC(F)(F)CC3)c2c1 [P-0615, 4-[1-[(4,4-difluorocyclohexyl)methyl]-3-[1-(2,2,2-trifluoroethyl)pyrazol-4-yl]pyrrolo[3,2-b]pyridin-6-yl]-3,5-bis(trideuteriomethyl)isoxazole]",< 10
16,"Cc1noc(C)c1-c1cnc2c(-c3ccc(C(=O)O)cc3)cn(CC3(C)COC3)c2c1 [P-0767, 4-[6-(3,5-dimethylisoxazol-4-yl)-1-[(3-methyloxetan-3-yl)methyl]pyrrolo[3,2-b]pyridin-3-yl]benzoic acid]",< 10
17,"Cc1ccc(-c2cn(CC3(F)CCC(F)(F)CC3)c3cc(-c4c(C)nnn4C)cnc23)cc1 [P-0808, 6-(3,5-dimethyltriazol-4-yl)-3-(p-tolyl)-1-[(1,4,4-trifluorocyclohexyl)methyl]pyrrolo[3,2-b]pyridine]",< 10
18,"Cc1noc(C)c1-c1cnc2c(-c3ccc(B(O)O)cc3)cn([C@H](c3ccccc3)c3ccccn3)c2c1 [P-0729, [4-[6-(3,5-dimethylisoxazol-4-yl)-1-[(R)-phenyl(2-pyridyl)methyl]pyrrolo[3,2-b]pyridin-3-yl]phenyl]boronic acid]",< 10

# Other lines, results leading:
row,IC50 [µM],Compound
1,< 10,"Cc1noc(C)c1-c1cnc2c(-c3ncc(C(=O)O)cn3)cn(CC3CCC(F)(F)CC3)c2c1 [P-0614, 2-[1-[(4,4-difluorocyclohexyl)methyl]-6-(3,5-dimethylisoxazol-4-yl)pyrrolo[3,2-b]pyridin-3-yl]pyrimidine-5-carboxylic acid]"
2,< 10,"Cc1noc(C)c1-c1cnc2c(-c3ccc(C4(C(=O)O)CC4)cc3)cn(CC3CCCCC3)c2c1 [P-0702, 1-[4-[1-(cyclohexylmethyl)-6-(3,5-dimethylisoxazol-4-yl)pyrrolo[3,2-b]pyridin-3-yl]phenyl]cyclopropanecarboxylic acid]"
3,< 10,"Cc1noc(C)c1-c1cnc2c(-c3ccc(C(C)(C)C(=O)O)cc3)cn(CC3CCCCC3)c2c1 [P-0703, 2-[4-[1-(cyclohexylmethyl)-6-(3,5-dimethylisoxazol-4-yl)pyrrolo[3,2-b]pyridin-3-yl]phenyl]-2-methyl-propanoic acid]"
4,< 10,"Cn1cc(-c2ccc3c(-c4ccc(C(=O)O)cc4)cn(CC4CCCCC4)c3c2)cc(Cl)c1=O [P-0763, 4-[6-(5-chloro-1-methyl-6-oxo-3-pyridyl)-1-(cyclohexylmethyl)indol-3-yl]benzoic acid]"
5,< 10,"Cc1noc(C)c1-c1ccc2c(-c3ccc(B(O)O)cc3)cn(CC3CCC(F)(F)CC3)c2c1 [P-0749, [4-[1-[(4,4-difluorocyclohexyl)methyl]-6-(3,5-dimethylisoxazol-4-yl)indol-3-yl]phenyl]boronic acid]"
6,< 10,"Cc1nnn(C)c1-c1cnc2c(-c3ccc(CC(=O)O)cc3)cn(CC3(F)CCC(F)(F)CC3)c2c1 [P-0812, 2-[4-[6-(3,5-dimethyltriazol-4-yl)-1-[(1,4,4-trifluorocyclohexyl)methyl]pyrrolo[3,2-b]pyridin-3-yl]phenyl]acetic acid]"
7,< 10,"Cc1noc(C)c1-c1cnc2c(-c3ccc(C4(C(=O)O)CC4)cc3)cn(CC3CCOCC3)c2c1 [P-0772, 1-[4-[6-(3,5-dimethylisoxazol-4-yl)-1-(tetrahydropyran-4-ylmethyl)pyrrolo[3,2-b]pyridin-3-yl]phenyl]cyclopropanecarboxylic acid]"
8,< 10,"Cc1noc(C)c1-c1cnc2c(I)cn(C(c3ccccc3)c3ccccc3)c2c1 [P-0616, 4-(1-benzhydryl-3-iodo-pyrrolo[3,2-b]pyridin-6-yl)-3,5-dimethyl-isoxazole]"
9,< 10,"Cc1ccc(-c2cn([C@H](c3ccccn3)C3CCCCC3)c3cc(-c4c(C)noc4C)cnc23)cc1 [P-0818, 4-[1-[(S)-cyclohexyl(2-pyridyl)methyl]-3-(p-tolyl)pyrrolo[3,2-b]pyridin-6-yl]-3,5-dimethyl-isoxazole]"
10,< 10,"Cc1noc(C)c1-c1ccc2c(-c3ccc(C(=O)O)cc3)cn(CC3(C)CCCCC3)c2c1 [P-0779, 4-[6-(3,5-dimethylisoxazol-4-yl)-1-[(1-methylcyclohexyl)methyl]indol-3-yl]benzoic acid]"
11,< 10,"Cc1noc(C)c1-c1ccc2c(-c3ccc(C(=O)O)cc3)cn([C@H](c3ccccc3)c3ccccn3)c2c1 [P-0755, 4-[6-(3,5-dimethylisoxazol-4-yl)-1-[(R)-phenyl(2-pyridyl)methyl]indol-3-yl]benzoic acid]"
12,< 10,"Cc1noc(C)c1-c1cnc2c(-c3ccc4c(c3)OC(=O)C4)cn(CC3CCCCC3)c2c1 [P-0801, 6-[1-(cyclohexylmethyl)-6-(3,5-dimethylisoxazol-4-yl)pyrrolo[3,2-b]pyridin-3-yl]-3H-benzofuran-2-one]"
13,< 10,"Cc1noc(C)c1-c1cnc2c(c1)c(C(c1ccccc1)c1ccccc1)cn2-c1ccc(C(=O)O)cc1 [P-0740, 4-[3-benzhydryl-5-(3,5-dimethylisoxazol-4-yl)pyrrolo[2,3-b]pyridin-1-yl]benzoic acid]"
14,< 10,"Cn1cc(-c2cnc3c(-c4ccc(C(=O)O)cc4)cn(CC4CCCCC4)c3c2)cc(Cl)c1=O [P-0764, 4-[6-(5-chloro-1-methyl-6-oxo-3-pyridyl)-1-(cyclohexylmethyl)pyrrolo[3,2-b]pyridin-3-yl]benzoic acid]"
15,< 10,"Cc1noc(C)c1-c1cnc2c(-c3ccc([N+](=O)[O-])nc3)cn([C@H](c3ccccc3)c3ccccn3)c2c1 [P-0730, 3,5-dimethyl-4-[3-(6-nitro-3-pyridyl)-1-[(R)-phenyl(2-pyridyl)methyl]pyrrolo[3,2-b]pyridin-6-yl]isoxazole]"
16,< 10,"Cc1noc(C)c1-c1cnc2c(-c3ccc4c(c3)OC(=O)C4)cn(CC3CCC(F)(F)CC3)c2c1 [P-0800, 6-[1-[(4,4-difluorocyclohexyl)methyl]-6-(3,5-dimethylisoxazol-4-yl)pyrrolo[3,2-b]pyridin-3-yl]-3H-benzofuran-2-one]"
17,< 10,"Cc1noc(C)c1-c1cnc2c(-c3ccc(P(=O)(O)O)cc3)cn(CC3CCCCC3)c2c1 [P-0701, [4-[1-(cyclohexylmethyl)-6-(3,5-dimethylisoxazol-4-yl)pyrrolo[3,2-b]pyridin-3-yl]phenyl]phosphonic acid]"
